Here are results for 18 compounds from patent US7598255B2 (Janssen Pharmaceutica NV, priority 2005, dated 2009).

Structures can show the parent of a compound that is named as a salt.

In general, Ki refers to the dissociation constant of the complex between target and ligand, obtained from inhibition or displacement.

For experiment [1], the target named is 5-HT2B receptor (Homo sapiens, UniProt P41595). Nature of the experiment: Affinity for 5HT2 receptor binding sites, h5-HT2B, [3H]mesulergine. As to conditions: CHO h5-HT2B membranes.
5-HT2B receptor, sequence (P41595 whole entry): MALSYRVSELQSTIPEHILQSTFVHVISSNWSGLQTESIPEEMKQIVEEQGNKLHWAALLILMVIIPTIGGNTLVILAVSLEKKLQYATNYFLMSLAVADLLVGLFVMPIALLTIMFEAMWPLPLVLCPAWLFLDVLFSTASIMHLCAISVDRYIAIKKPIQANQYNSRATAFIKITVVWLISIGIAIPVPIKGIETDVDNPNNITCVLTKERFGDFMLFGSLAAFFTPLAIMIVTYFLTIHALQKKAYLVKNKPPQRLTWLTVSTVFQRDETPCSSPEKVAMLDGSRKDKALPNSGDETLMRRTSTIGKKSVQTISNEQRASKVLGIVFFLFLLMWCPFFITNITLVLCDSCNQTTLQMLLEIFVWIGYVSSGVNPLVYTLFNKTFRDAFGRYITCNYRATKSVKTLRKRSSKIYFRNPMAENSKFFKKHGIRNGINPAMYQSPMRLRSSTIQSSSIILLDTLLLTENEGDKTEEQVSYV
Procedure: (§1) Sigmoidal inhibition curves were generated and fitted by nonlinear regression analysis (GraphPad Prism).
(§2) Receptor binding was performed using the human recombinant 5-HT2A (GB: X57830), 5-HT2B (GB: Z36748) and 5-HT2C (GB: M81778) receptors. The affinity of the compounds for the 3 different human 5-HT2 receptor subtypes was evaluated by competitive radioligand binding assays using [^3H]ketanserin (h5-HT2A) or [^3H]mesulergine (h5-HT2B and h5-HT2C). The assays were performed on membranes prepared from NIH3T3 stably transfected with h5-HT2A or CHO stably transfected with h5-HT2B and h5-HT2C.
Experiment [2] has as its target T1, 5-HT2A receptor (Homo sapiens, UniProt P28223). Nature of the experiment: Affinity for 5-HT2A receptor binding sites, radioligand binding with [3H]ketanserin. As to conditions: read-out: Ki 5-HT2A, rat cortex membranes (assay 2) or NIH3T3 h5-HT2A membranes (assay 3), table does not say which.
Experiment [3] deals with T1, 5-HT2A receptor. Nature of the experiment: In vitro functional assay for 5-HT2 receptor (intracellular calcium, FLIPR), 5-HT2A. It counts as cell-based. To be noted: same cell lines as receptor binding, read-out: pKb 5-HT2A (converted). The text has this: The 5-HT2 receptors are linked to the Gq family of G proteins and to subsequent activation of phospholipase C, induction of phosphoinositide metabolism and to an increase in intracelular calcium concentration. The same cell lines as described in the previous section (receptor binding) were used for the FLIPR experiments.
(A change in cytosolic calcium serves as a functional read-out for many receptors and channels.)

Experiment [4] has as its target T2, human recombinant 5-HT2C receptor (Homo sapiens, UniProt P28335).
T2 sequence (P28335 33-458): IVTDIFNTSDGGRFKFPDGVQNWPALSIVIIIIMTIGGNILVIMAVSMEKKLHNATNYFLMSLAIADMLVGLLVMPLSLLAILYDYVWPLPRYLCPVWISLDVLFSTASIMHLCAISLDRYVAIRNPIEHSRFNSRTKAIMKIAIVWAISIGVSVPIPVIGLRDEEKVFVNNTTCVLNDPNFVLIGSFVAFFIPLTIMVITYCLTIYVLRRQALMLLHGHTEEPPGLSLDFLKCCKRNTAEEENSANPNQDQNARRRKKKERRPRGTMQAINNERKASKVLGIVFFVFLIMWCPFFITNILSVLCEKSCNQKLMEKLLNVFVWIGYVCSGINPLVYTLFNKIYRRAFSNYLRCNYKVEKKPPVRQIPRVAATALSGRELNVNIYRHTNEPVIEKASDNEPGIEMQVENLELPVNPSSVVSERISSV
Nature of the experiment: Affinity for 5HT2 receptor binding sites, h5-HT2C, [3H]mesulergine. As to conditions: CHO h5-HT2C membranes.
Procedure: as §1, §2

Experiment [5] deals with rat 5-HT7a receptor (Rattus norvegicus, UniProt P32305). The experiment can be described thus: Affinity for 5-HT7 receptor binding sites, radioligand binding with [3H]5-CT. As to conditions: membranes of HEK-293 cells with rat 5-HT7a, 1 nM [3H]5-CT. The gist of the method:
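Competition binding on membranes from HEK-293 cells stably expressing rat 5-HT7a, 135 μg protein/mL in 50 mM Tris-HCl pH 7.5, 5 mM EDTA. Incubated 60 min at RT with 1 nM [3H]5-CT and increasing compound concentrations; nonspecific binding with 10 μM 5-HT. Filtration and scintillation counting, in triplicate.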

Experiment [6] concerns the target human recombinant 5-HT6 receptor (Homo sapiens, UniProt P50406). Nature of the experiment: Affinity for 5-HT6 receptor binding sites, [3H]LSD. As to conditions: HEK-293 h5-HT6 membranes.

T1 sequence (P28223 whole entry): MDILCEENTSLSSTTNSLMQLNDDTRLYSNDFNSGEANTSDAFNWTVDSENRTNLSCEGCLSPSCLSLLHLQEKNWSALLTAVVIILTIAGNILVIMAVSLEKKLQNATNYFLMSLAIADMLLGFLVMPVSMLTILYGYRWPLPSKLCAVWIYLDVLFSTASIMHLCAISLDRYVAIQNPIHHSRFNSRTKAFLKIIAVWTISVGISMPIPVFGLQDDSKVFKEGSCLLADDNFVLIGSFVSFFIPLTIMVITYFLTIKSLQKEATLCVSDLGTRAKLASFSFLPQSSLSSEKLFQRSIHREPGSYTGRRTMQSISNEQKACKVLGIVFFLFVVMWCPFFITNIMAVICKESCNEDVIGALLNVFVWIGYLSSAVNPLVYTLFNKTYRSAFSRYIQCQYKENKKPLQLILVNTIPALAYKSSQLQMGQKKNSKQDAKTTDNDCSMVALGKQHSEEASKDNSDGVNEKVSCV
rat 5-HT7a receptor, sequence (P32305 whole entry): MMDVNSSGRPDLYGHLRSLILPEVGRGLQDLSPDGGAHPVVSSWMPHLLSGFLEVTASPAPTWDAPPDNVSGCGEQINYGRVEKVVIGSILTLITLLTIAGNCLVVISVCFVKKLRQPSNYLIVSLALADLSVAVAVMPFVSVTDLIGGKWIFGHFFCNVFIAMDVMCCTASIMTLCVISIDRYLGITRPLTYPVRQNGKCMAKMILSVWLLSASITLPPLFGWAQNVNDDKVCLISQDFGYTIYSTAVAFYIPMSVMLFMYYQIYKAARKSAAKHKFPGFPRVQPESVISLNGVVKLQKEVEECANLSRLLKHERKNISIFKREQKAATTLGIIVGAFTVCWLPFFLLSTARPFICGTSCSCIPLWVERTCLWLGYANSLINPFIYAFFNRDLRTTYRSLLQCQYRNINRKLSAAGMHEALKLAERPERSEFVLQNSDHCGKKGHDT
human recombinant 5-HT6 receptor, sequence (P50406 whole entry): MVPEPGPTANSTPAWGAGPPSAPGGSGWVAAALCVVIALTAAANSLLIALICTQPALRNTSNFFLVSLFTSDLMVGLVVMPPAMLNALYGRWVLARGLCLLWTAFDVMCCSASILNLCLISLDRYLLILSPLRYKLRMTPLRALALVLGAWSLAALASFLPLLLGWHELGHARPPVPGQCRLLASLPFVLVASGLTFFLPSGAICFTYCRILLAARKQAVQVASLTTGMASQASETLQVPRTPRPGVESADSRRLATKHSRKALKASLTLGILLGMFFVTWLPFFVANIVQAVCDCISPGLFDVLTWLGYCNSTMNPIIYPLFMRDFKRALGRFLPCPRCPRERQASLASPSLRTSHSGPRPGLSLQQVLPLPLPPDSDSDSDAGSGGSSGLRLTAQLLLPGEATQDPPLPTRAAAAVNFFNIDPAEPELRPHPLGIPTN

As for `Fc1ccc(Cc2nc3c(c(-c4ccc(F)cc4)n2)CNCC3)cc1` [Example 13, 2-(4-Fluoro-benzyl)-4-(4-fluoro-phenyl)-5,6,7,8-tetrahydro-pyrido[4,3-d]pyrimidine], the Ki was 2.2 µM in experiment [1], 0.0125 µM in experiment [2], 1 µM in experiment [4] and above 10 µM in experiment [5]. The Kb in experiment [3] was 0.0794 µM.

As for `CC(C)c1nc2c(c(-c3ccc(F)cc3)n1)CNCC2` [Example 21, 4-(4-Fluoro-phenyl)-2-isopropyl-5,6,7,8-tetrahydro-pyrido[4,3-d]pyrimidine hydrochloride], the Ki in experiment [6] is above 10 µM; in experiment [1], 1.19 µM; in experiment [2], 0.025 µM; in experiment [4], 1.17 µM; in experiment [5], above 10 µM. Besides, the Kb in experiment [3] is 0.0316 µM.

For the compound `Cc1ccc(-c2nc(C3CCCC3)nc3c2CCN(C)CC3)cc1` [Example 59, 2-Cyclopentyl-7-methyl-4-p-tolyl-6,7,8,9-tetrahydro-5H-pyrimido[4,5-d]azepine], the Ki in experiment [6] was 0.02 µM; in experiment [1] it was 0.0078 µM; in experiment [2], 0.0015 µM; in experiment [4], 0.029 µM; in experiment [5], 0.1 µM.

With `COc1ccc(-c2nc(C3CCCC3)nc3c2CCN(C)CC3)cc1` [Example 60, 2-Cyclopentyl-4-(4-methoxy-phenyl)-7-methyl-6,7,8,9-tetrahydro-5H-pyrimido[4,5-d]azepine], the inhibition constant (Ki) in experiment [6] is 0.06 µM; in experiment [1], 0.01 µM; in experiment [2], 0.006 µM; in experiment [4] it was 0.06 µM; in experiment [5] it was 0.4 µM.

For the compound `Cc1ccc(-c2nc(Cc3ccccc3)nc3c2CCN(C)CC3)cc1` [Example 61, 2-Benzyl-7-methyl-4-p-tolyl-6,7,8,9-tetrahydro-5H-pyrimido[4,5-d]azepine], the Ki in experiment [6] was determined as 0.02 µM; in experiment [1] it was 0.015 µM; in experiment [2], 0.0019 µM; in experiment [4], 0.035 µM; in experiment [5], 0.25 µM.

`Fc1ccc(-c2nc(Cc3ccccc3)nc3c2CCCNC3)cc1` [Example 64, 2-Benzyl-4-(4-fluoro-phenyl)-6,7,8,9-tetrahydro-5H-pyrimido[4,5-c]azepine hydrochloride]: the inhibition constant (Ki) in experiment [6] is 1.3 µM; in experiment [1] it was 1.3 µM; in experiment [2], 0.01 µM; in experiment [4], 0.07 µM; in experiment [5], above 10 µM. In addition, in experiment [3], the Kb was 0.0794 µM.

Turning to `CC(C)c1nc2c(c(-c3ccc(F)cc3)n1)CCCNC2` [Example 65, 4-(4-Fluoro-phenyl)-2-isopropyl-6,7,8,9-tetrahydro-5H-pyrimido[4,5-c]azepine hydrochloride], the inhibitory constant (Ki) in experiment [6] was above 10 µM; in experiment [1], 0.3 µM; in experiment [2], 0.02 µM; in experiment [4], 0.57 µM; in experiment [5], above 10 µM.

For `Fc1ccc(-c2nc(Cc3ccccc3)nc3c2CCN(Cc2ccccc2)C3)cc1` [Example 70, 2,7-Dibenzyl-4-(4-fluoro-phenyl)-5,6,7,8-tetrahydro-pyrido[3,4-d]pyrimidine hydrochloride], the inhibition constant Ki is 0.25 µM in experiment [6]; above 10 µM in experiment [1]; 0.117 µM in experiment [2]; 3.73 µM in experiment [4]; above 10 µM in experiment [5].

`Cc1ccc(-c2nc(Cc3ccccc3)nc3c2CCN(Cc2ccccc2)C3)cc1` [Example 71, 2,7-Dibenzyl-4-p-tolyl-5,6,7,8-tetrahydro-pyrido[3,4-d]pyrimidine]: the inhibitory constant (Ki) in experiment [6] is 0.3 µM; in experiment [1] it was 4.33 µM; in experiment [2], 1.03 µM; in experiment [4], 3.58 µM; in experiment [5], above 10 µM.

On to `Fc1ccc(-c2nc(Cc3ccccc3)nc3c2CCNC3)cc1` [Example 76, 2-Benzyl-4-(4-fluoro-phenyl)-5,6,7,8-tetrahydro-pyrido[3,4-d]pyrimidine hydrochloride], for which the Ki in experiment [6] was 0.3 µM; in experiment [1] it was 0.315 µM; in experiment [2], 0.009 µM; in experiment [4], 0.075 µM; in experiment [5], 0.15 µM. In experiment [3], the Kb was 0.1 µM.

For `Cc1ccc(-c2nc(Cc3ccccc3)nc3c2CCNC3)cc1` [Example 77, 2-Benzyl-4-p-tolyl-5,6,7,8-tetrahydro-pyrido[3,4-d]pyrimidine hydrochloride], the inhibition constant Ki came out at 0.4 µM in experiment [6]; 0.2 µM in experiment [1]; 0.015 µM in experiment [2]; 0.13 µM in experiment [4]; 0.022 µM in experiment [5].

Turning to `c1ccc(Cc2nc3c(c(-c4ccccc4)n2)CCNC3)cc1` [Example 78, 2-Benzyl-4-phenyl-5,6,7,8-tetrahydro-pyrido[3,4-d]pyrimidine], the Ki was 0.9 µM in experiment [1], 0.025 µM in experiment [2], 0.38 µM in experiment [4] and 0.4 µM in experiment [5]. Moreover, the Kb in experiment [3] is 0.0794 µM.

`CC(C)c1nc2c(c(-c3ccc(F)cc3)n1)CCNC2` [Example 80, 4-(4-Fluoro-phenyl)-2-isopropyl-5,6,7,8-tetrahydro-pyrido[3,4-d]pyrimidine hydrochloride]: the Ki in experiment [6] is 2.8 µM; in experiment [1], 0.158 µM; in experiment [2], 0.011 µM; in experiment [4], 0.94 µM; in experiment [5], above 10 µM.

For `CC(C)N1CCc2c(nc(Cc3ccccc3)nc2-c2ccc(F)cc2)C1` [Example 83, 2-Benzyl-4-(4-fluoro-phenyl)-7-isopropyl-5,6,7,8-tetrahydro-pyrido[3,4-d]pyrimidine], the Ki was 0.23 µM in experiment [6]; 1 µM in experiment [1]; 0.03 µM in experiment [2]; 0.3 µM in experiment [4]; above 10 µM in experiment [5].

For the compound `CC(C)c1nc(-c2ccc(F)cc2)c2c(n1)C(C)CNC2` (stereo not drawn) [Example 100, 4-(4-Fluoro-phenyl)-2-isopropyl-8-methyl-5,6,7,8-tetrahydro-pyrido[4,3-d]pyrimidine hydrochloride], the Ki in experiment [1] is 0.9 µM; in experiment [2], 0.014 µM; in experiment [4] it was 0.3 µM; in experiment [5], above 10 µM. Further, the Kb in experiment [3] is 0.1 µM.

For the compound `Cc1ccc(-c2nc(C(C)C)nc3c2CNCC3C)cc1` (stereo not drawn) [Example 102, 2-Isopropyl-8-methyl-4-p-tolyl-5,6,7,8-tetrahydro-pyrido[4,3-d]pyrimidine hydrochloride], the Ki was 0.37 µM in experiment [6]; 0.15 µM in experiment [1]; 0.02 µM in experiment [2]; 0.23 µM in experiment [4]; above 10 µM in experiment [5].

For `CC(C)c1nc2c(c(-c3ccc(F)cc3)n1)CCC(N1CCCC1)C2` (stereo not drawn) [Example 107, 4-(4-Fluoro-phenyl)-2-isopropyl-7-pyrrolidin-1-yl-5,6,7,8-tetrahydro-quinazoline], the inhibitory constant (Ki) in experiment [6] is 4 µM; in experiment [1] it was 0.275 µM; in experiment [2], 0.012 µM; in experiment [4] it was 0.5 µM; in experiment [5], above 10 µM.

As for `CNC1CCc2nc(C(C)C)nc(-c3ccc(F)cc3)c2C1` (stereo not drawn) [Example 109, [4-(4-Fluoro-phenyl)-2-isopropyl-5,6,7,8-tetrahydro-quinazolin-6-yl]-methyl-amine hydrochloride], the Ki in experiment [6] is above 10 µM; in experiment [1], above 10 µM; in experiment [2], 0.4 µM; in experiment [4], above 10 µM; in experiment [5], above 10 µM.
